Data from PubChem BioAssay AID328 (DTP/NCI, 2004).
Where “and” joins values, the source holds several entries; their conditions need not be identical. Identical values can stand only once. Inconclusive results and toxic doses are left out.

System: BDF1 mice, P388 leukemia ip, median survival T/C
Assay: NCI In Vivo Anticancer Drug Screen. Data for tumor model P388 Leukemia (intraperitoneal) in B6D2F1 (BDF1) mice
Conditions: endpoint: median survival time, higher = longer survival
Procedure, shortened: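 Transplantable tumour in mice; compound vs vehicle dosing; survival scored; ratio of treated to control reported.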

[1] = dose: 25.0 mg/kg/injection, schedule: Q01DX009 (ip), vehicle: saline with Tween-80
[2] = dose: 50.0 mg/kg/injection, schedule: Q01DX009 (ip), vehicle: saline with Tween-80
[3] = dose: 100.0 mg/kg/injection, schedule: Q01DX009 (ip), vehicle: saline with Tween-80
[4] = dose: 200.0 mg/kg/injection, schedule: Q01DX009 (ip), vehicle: saline with Tween-80
[5] = dose: 100.0 mg/kg/injection, schedule: Q04DX003 (ip), vehicle: Klucel (hydroxypropylcellulose) (HPC)
[6] = dose: 200.0 mg/kg/injection, schedule: Q04DX003 (ip), vehicle: Klucel (hydroxypropylcellulose) (HPC)
[7] = dose: 400.0 mg/kg/injection, schedule: Q04DX003 (ip), vehicle: Klucel (hydroxypropylcellulose) (HPC)
[8] = dose: 100.0 mg/kg/injection, schedule: Q04DX003 (ip), vehicle: saline with Tween-80
[9] = dose: 6.25 mg/kg/injection, schedule: Q04DX003 (ip), vehicle: saline with Tween-80
[10] = dose: 12.5 mg/kg/injection, schedule: Q04DX003 (ip), vehicle: saline with Tween-80
[11] = dose: 25.0 mg/kg/injection, schedule: Q04DX003 (ip), vehicle: saline with Tween-80
[12] = dose: 50.0 mg/kg/injection, schedule: Q04DX003 (ip), vehicle: saline with Tween-80

## CCOC(=O)C(CC(C)C)NC(=O)C(Cc1ccc(N(CCCl)CCCl)cc1)NC(C)=O (stereo unspecified)
dose: 1.0 mg/kg/injection, schedule: Q01DX009 (ip), vehicle: other
  T/C: 104 % of control
dose: 2.0 mg/kg/injection, schedule: Q01DX009 (ip), vehicle: other
  T/C: 109 % of control
dose: 8.0 mg/kg/injection, schedule: Q01DX009 (ip), vehicle: other
  T/C: 163 % of control
dose: 32.0 mg/kg/injection, schedule: Q01DX009 (ip), vehicle: other
  T/C: 163 % of control
dose: 64.0 mg/kg/injection, schedule: Q01DX009 (ip), vehicle: other
  T/C: 172 % of control
dose: 128.0 mg/kg/injection, schedule: Q01DX009 (ip), vehicle: other
  T/C: 195 % of control
dose: 256.0 mg/kg/injection, schedule: Q01DX009 (ip), vehicle: other
  T/C: 89 % of control

## CCC(c1ccc(OC)cc1)C(NCC(=O)NNC(=O)CNC(c1ccc(OC)cc1)C(CC)c1ccc(OC)cc1)c1ccc(OC)cc1 (stereo unspecified)
dose: 12.5 mg/kg/injection, schedule: Q04DX002 (ip), vehicle: saline with Tween-80
  T/C: 110 % of control
dose: 25.0 mg/kg/injection, schedule: Q04DX002 (ip), vehicle: saline with Tween-80
  T/C: 88 % of control
dose: 50.0 mg/kg/injection, schedule: Q04DX002 (ip), vehicle: saline with Tween-80
  T/C: 94 % of control

## O=C1/C(=N/O)Cc2ccccc21
dose: 0.1 mg/kg/injection, schedule: Q01DX009 (ip), vehicle: water
  T/C: 101 % of control
dose: 0.2 mg/kg/injection, schedule: Q01DX009 (ip), vehicle: water
  T/C: 103 % of control and 108 % of control
dose: 0.8 mg/kg/injection, schedule: Q01DX009 (ip), vehicle: water
  T/C: 106 % of control
dose: 1.2 mg/kg/injection, schedule: Q01DX009 (ip), vehicle: water
  T/C: 108 % of control
dose: 2.4 mg/kg/injection, schedule: Q01DX009 (ip), vehicle: water
  T/C: 96 % of control
dose: 3.12 mg/kg/injection, schedule: Q04DX003 (ip), vehicle: water
  T/C: 106 % of control
dose: 6.25 mg/kg/injection, schedule: Q04DX003 (ip), vehicle: water
  T/C: 97 % of control
dose: 12.5 mg/kg/injection, schedule: Q04DX003 (ip), vehicle: water
  T/C: 115 % of control
dose: 25.0 mg/kg/injection, schedule: Q04DX003 (ip), vehicle: water
  T/C: 104 % of control
dose: 50.0 mg/kg/injection, schedule: Q04DX003 (ip), vehicle: water
  T/C: 106 % of control

## COc1cc(CCC(NC(C)=O)c2cccc(O)c(=O)c2)cc(OC)c1OC (stereo unspecified)
[1]
  T/C: 90 % of control
[2]
  T/C: 96 % of control
[3]
  T/C: 90 % of control
[4]
  T/C: 91 % of control

## O=[N+]([O-])c1ccc(SNc2ccc(O)cc2)cc1[N+](=O)[O-]
dose: 100.0 mg/kg/injection, schedule: Q01DX009 (ip), vehicle: Klucel (hydroxypropylcellulose) (HPC)
  T/C: 100 % of control
[5]
  T/C: 100 % of control
dose: 200.0 mg/kg/injection, schedule: Q01DX009 (ip), vehicle: Klucel (hydroxypropylcellulose) (HPC)
  T/C: 90 % of control
[6]
  T/C: 104 % of control
dose: 400.0 mg/kg/injection, schedule: Q01DX009 (ip), vehicle: Klucel (hydroxypropylcellulose) (HPC)
  T/C: 109 % of control
[7]
  T/C: 104 % of control

## COc1ccc(CN(CC(=O)O)S(C)(=O)=O)cc1
dose: 100.0 mg/kg/injection, schedule: Q04DX003 (ip), vehicle: other
  T/C: 103 % of control
dose: 200.0 mg/kg/injection, schedule: Q04DX003 (ip), vehicle: other
  T/C: 100 % of control
dose: 400.0 mg/kg/injection, schedule: Q04DX003 (ip), vehicle: other
  T/C: 109 % of control

## O=C(NO)/C(Cc1ccccc1)=N/O
[2]
  T/C: 99 % of control
[3]
  T/C: 104 % of control
[4]
  T/C: 98 % of control

## Clc1cc(C(Cl)(Cl)Cl)c(Cl)cc1C(Cl)(Cl)Cl
[8]
  T/C: 100 % of control
dose: 200.0 mg/kg/injection, schedule: Q04DX003 (ip), vehicle: saline with Tween-80
  T/C: 105 % of control
dose: 400.0 mg/kg/injection, schedule: Q04DX003 (ip), vehicle: saline with Tween-80
  T/C: 110 % of control

## Cn1nnc(CC(=O)O)n1
dose: 50.0 mg/kg/injection, schedule: Q01DX009 (ip), vehicle: saline
  T/C: 110 % of control
dose: 100.0 mg/kg/injection, schedule: Q01DX009 (ip), vehicle: saline
  T/C: 101 % of control
dose: 200.0 mg/kg/injection, schedule: Q01DX009 (ip), vehicle: saline
  T/C: 99 % of control

## O=C(Nc1ccccc1O)/C(Cl)=C/Cl
dose: 22.0 mg/kg/injection, schedule: Q01DX009 (ip), vehicle: saline with Tween-80
  T/C: 122 % of control
dose: 33.0 mg/kg/injection, schedule: Q01DX009 (ip), vehicle: saline with Tween-80
  T/C: 123 % of control

## CC(=O)NC1C(S[As](C)C)OC(COC(C)=O)C(OC(C)=O)C1OC(C)=O (stereo unspecified)
[3]
  T/C: 124 % of control

## C1CCCCCC(NC2=NCCO2)CCCCC1
dose: 3.13 mg/kg/injection, schedule: Q04DX003 (ip), vehicle: saline with Tween-80
  T/C: 95 % of control
[9]
  T/C: 95 % of control
[10]
  T/C: 108 % of control
[11]
  T/C: 90 % of control
[12]
  T/C: 90 % of control

## CC1(C#N)CCC(CCc2ccccc2)C(=O)C1 (stereo unspecified)
dose: 75.0 mg/kg/injection, schedule: Q04DX003 (ip), vehicle: saline
  T/C: 95 % of control
dose: 150.0 mg/kg/injection, schedule: Q04DX003 (ip), vehicle: saline
  T/C: 87 % of control
dose: 300.0 mg/kg/injection, schedule: Q04DX003 (ip), vehicle: saline
  T/C: 104 % of control

## CC1(C)N=C(N)N=C(N)N1c1cccc(CCCCc2ccc(Cl)c(S(=O)(=O)F)c2)c1
dose: 1.8 mg/kg/injection, schedule: Q01DX009 (ip), vehicle: saline
  T/C: 100 % of control
dose: 3.13 mg/kg/injection, schedule: Q01DX009 (ip), vehicle: saline
  T/C: 112 % of control
dose: 4.0 mg/kg/injection, schedule: Q01DX009 (ip), vehicle: saline
  T/C: 114 % of control
dose: 6.0 mg/kg/injection, schedule: Q01DX009 (ip), vehicle: saline
  T/C: 122 % of control
dose: 7.0 mg/kg/injection, schedule: Q04DX003 (ip), vehicle: saline
  T/C: 109 % of control
dose: 9.0 mg/kg/injection, schedule: Q01DX009 (ip), vehicle: saline
  T/C: 107 % of control
dose: 12.5 mg/kg/injection, schedule: Q01DX009 (ip), vehicle: saline
  T/C: 120 % of control
dose: 14.0 mg/kg/injection, schedule: Q01DX009 (ip), vehicle: saline
  T/C: 150 % of control
dose: 14.0 mg/kg/injection, schedule: Q04DX003 (ip), vehicle: saline
  T/C: 118 % of control
dose: 28.0 mg/kg/injection, schedule: Q04DX003 (ip), vehicle: saline
  T/C: 118 % of control
dose: 56.0 mg/kg/injection, schedule: Q04DX003 (ip), vehicle: saline
  T/C: 104 % of control

## CC1CCCC(c2ccccc2)C1 (stereo unspecified)
dose: 50.0 mg/kg/injection, schedule: Q01DX001 (ip), vehicle: saline with Tween-80
  T/C: 109 % of control
dose: 100.0 mg/kg/injection, schedule: Q01DX001 (ip), vehicle: saline with Tween-80
  T/C: 109 % of control
dose: 200.0 mg/kg/injection, schedule: Q01DX001 (ip), vehicle: saline with Tween-80
  T/C: 109 % of control

## O=S(=O)(c1ccccc1CO)c1ccccc1CO
dose: 100.0 mg/kg/injection, schedule: Q04DX002 (ip), vehicle: saline with Tween-80
  T/C: 98 % of control
dose: 200.0 mg/kg/injection, schedule: Q04DX002 (ip), vehicle: saline with Tween-80
  T/C: 95 % of control
dose: 400.0 mg/kg/injection, schedule: Q04DX002 (ip), vehicle: saline with Tween-80
  T/C: 100 % of control

## Cc1cccc(CCl)c1
dose: 100.0 mg/kg/injection, schedule: Q04DX003 (ip), vehicle: saline sonified
  T/C: 104 % of control
dose: 200.0 mg/kg/injection, schedule: Q04DX003 (ip), vehicle: saline sonified
  T/C: 109 % of control
dose: 400.0 mg/kg/injection, schedule: Q04DX003 (ip), vehicle: saline sonified
  T/C: 100 % of control

## c1cnc2c3c(ccc2c1)CN(C12CC4CC(CC(C4)C1)C2)CO3
[11]
  T/C: 108 % of control
[12]
  T/C: 109 % of control and 113 % of control
[8]
  T/C: 108 % of control

## O=C(OC1C=CCC1)c1ccc([N+](=O)[O-])cc1 (stereo unspecified)
[5]
  T/C: 100 % of control
[6]
  T/C: 100 % of control
[7]
  T/C: 100 % of control

## Clc1ccc(-c2cc(=[N+]3CCCCC3)ss2)cc1
[9]
  T/C: 92 % of control
[10]
  T/C: 102 % of control and 103 % of control
[1]
  T/C: 110 % of control
[11]
  T/C: 93 % of control and 94 % of control
[2]
  T/C: 110 % of control
[12]
  T/C: 98 % of control and 99 % of control and 119 % of control
[8]
  T/C: 100 % of control and 102 % of control and 114 % of control
